{
  "source": "patent US12104173B2",
  "about": "“Method for differentiation of human pluripotent stem cell lines in suspension culture” (AGENCY FOR SCIENCE, TECHNOLOGY AND RESEARCH, priority 2018, dated 2024)",
  "format_in_all_cases": "cell-based, human",
  "key": {"D5 O-neg hiPSC line": {"test_system": "D5 O-neg hiPSC line", "experiment": "CHIR dose: hematopoietic/erythroid differentiation of agitated hPSC-MC aggregates", "details": "optimal dose of CHIR-99021, day 4"}, "[1]": {"test_system": "hES-3 microcarrier aggregates", "experiment": "capillary Western blot of Wnt/β-catenin signalling proteins", "details": "hES-3-MC; upon induction with CHIR (15 μM CHIR, 30 ng/ml BMP4, 40 ng/ml Activin A)", "procedure": "Day 7 hES-3-MC aggregates from static or agitation conditions were subjected to differentiation using BMP4 protocol (50 ng/ml BMP4) or optimized CHIR-based protocol (30 ng/ml BMP4, 40 ng/ml Activin A and 15 μM CHIR). Cell lysates before start of differentiation (0 hours) and 24 hours after onset of differentiation were analysed for proteins involved in Wnt/β-catenin signalling (T-BRA, TCF-1 and LEF-1) and BMP4 signalling (SMAD7, SMAD1 and phospho SMAD1/5) using an automated Capillary Western Blot system (Peggy Sue). All samples including GAPDH as a protein loading control were run in parallel. (A) is an image showing digitalized chemiluminescence signals represented as band intensities. Corresponding molecular weight of detected proteins are indicated. […] Graphical representation of chemiluminescence intensity of proteins (expressed as a percentage of GAPDH expression) involved in (B) Wnt/β-catenin signalling and (C) BMP4 signalling. […]\nCapillary Western blot was performed using a fully automated system, Peggy Sue (Proteinsimple, R&D, USA). Proteins were separated, detected and quantified according to manufacturer's protocol (www.proteinsimple.com) based on size separation (12-230 kDa). […] (all from Cell Signaling Technology)[1:50 diluted SMAD7 (Sigma-Aldrich)] followed by horseradish peroxidase conjugated secondary antibody and detected with Luminol/Peroxidase substrate. […]"}, "X13 O-neg hiPSC line": {"test_system": "X13 O-neg hiPSC line", "experiment": "CHIR dose: hematopoietic/erythroid differentiation of agitated hPSC-MC aggregates", "details": "optimal dose of CHIR-99021, day 4"}},
  "data": [
    {"smiles": "Cc1c[nH]c(-c2cnc(NCCNc3ccc(C#N)cn3)nc2-c2ccc(Cl)cc2Cl)n1", "note": "[CHIR-99021, 6-[[2-[[4-(2,4-Dichlorophenyl)-5-(5-methyl-1H-imidazol-2-yl)-2-pyrimidinyl]amino]ethyl]amino]-3-pyridinecarbonitrile]", "values": [
      {"measurement": "Mesoderm induction % KDR+ PDGFRα−", "setting": "D5 O-neg hiPSC line", "value": 35.8, "unit": "%"},
      {"measurement": "Wnt/β-catenin signalling proteins TCF-1, LEF-1 and T-BRA", "setting": "[1]", "value": "detected as early as 24 hours"},
      {"measurement": "Mesoderm induction % KDR+ PDGFRα−", "setting": "X13 O-neg hiPSC line", "value": 40.8, "unit": "%"}
    ]}
  ]
}
